Test results taken from patent US20250188040A1, “PHARMACEUTICAL COMPOSITIONS COMPRISING WRN HELICASE INHIBITORS” (Vividion Therapeutics, Inc., priority 2022, published 2025).

Columns and labels:
[1] = target: hWRN(519-1227)_C-H3CV-GFP-10His (Homo sapiens, UniProt Q14191); test: Helicase Assay for WRN Inhibition (ATP-dependent, fluorescence based); settings: WRN Helicase IC50, 30 min preincubation with ATP, 30 min reaction
Protocol: Effects of compounds on WRN helicase activity were assessed with the Helicase Assay for WRN Inhibition. This is an ATP-dependent (inclusion of ATP is important and is required for this assay) fluorescence based assay using recombinant WRN and a fluorogenic DNA substrate.
WRN activity was normalized to signal from wells without WRN protein (background, 0% activity) and wells with protein treated only with DMSO (positive control, 10000 activity). For each compound the potency of inhibition (IC50) was determiined using Graphpad Prism.

WRN C727 = target: T1, WRN C727 (Homo sapiens, UniProt Q14191); test: Target engagement, in vitro (lysate), OCI-AML2; format: binding; settings: read-out: OCI-AML2 WRN C727 TE50 in vitro (lysate)
T1 construct: endogenous in cells; host or cells: OCI-AML2
T1 sequence (Q14191 whole entry): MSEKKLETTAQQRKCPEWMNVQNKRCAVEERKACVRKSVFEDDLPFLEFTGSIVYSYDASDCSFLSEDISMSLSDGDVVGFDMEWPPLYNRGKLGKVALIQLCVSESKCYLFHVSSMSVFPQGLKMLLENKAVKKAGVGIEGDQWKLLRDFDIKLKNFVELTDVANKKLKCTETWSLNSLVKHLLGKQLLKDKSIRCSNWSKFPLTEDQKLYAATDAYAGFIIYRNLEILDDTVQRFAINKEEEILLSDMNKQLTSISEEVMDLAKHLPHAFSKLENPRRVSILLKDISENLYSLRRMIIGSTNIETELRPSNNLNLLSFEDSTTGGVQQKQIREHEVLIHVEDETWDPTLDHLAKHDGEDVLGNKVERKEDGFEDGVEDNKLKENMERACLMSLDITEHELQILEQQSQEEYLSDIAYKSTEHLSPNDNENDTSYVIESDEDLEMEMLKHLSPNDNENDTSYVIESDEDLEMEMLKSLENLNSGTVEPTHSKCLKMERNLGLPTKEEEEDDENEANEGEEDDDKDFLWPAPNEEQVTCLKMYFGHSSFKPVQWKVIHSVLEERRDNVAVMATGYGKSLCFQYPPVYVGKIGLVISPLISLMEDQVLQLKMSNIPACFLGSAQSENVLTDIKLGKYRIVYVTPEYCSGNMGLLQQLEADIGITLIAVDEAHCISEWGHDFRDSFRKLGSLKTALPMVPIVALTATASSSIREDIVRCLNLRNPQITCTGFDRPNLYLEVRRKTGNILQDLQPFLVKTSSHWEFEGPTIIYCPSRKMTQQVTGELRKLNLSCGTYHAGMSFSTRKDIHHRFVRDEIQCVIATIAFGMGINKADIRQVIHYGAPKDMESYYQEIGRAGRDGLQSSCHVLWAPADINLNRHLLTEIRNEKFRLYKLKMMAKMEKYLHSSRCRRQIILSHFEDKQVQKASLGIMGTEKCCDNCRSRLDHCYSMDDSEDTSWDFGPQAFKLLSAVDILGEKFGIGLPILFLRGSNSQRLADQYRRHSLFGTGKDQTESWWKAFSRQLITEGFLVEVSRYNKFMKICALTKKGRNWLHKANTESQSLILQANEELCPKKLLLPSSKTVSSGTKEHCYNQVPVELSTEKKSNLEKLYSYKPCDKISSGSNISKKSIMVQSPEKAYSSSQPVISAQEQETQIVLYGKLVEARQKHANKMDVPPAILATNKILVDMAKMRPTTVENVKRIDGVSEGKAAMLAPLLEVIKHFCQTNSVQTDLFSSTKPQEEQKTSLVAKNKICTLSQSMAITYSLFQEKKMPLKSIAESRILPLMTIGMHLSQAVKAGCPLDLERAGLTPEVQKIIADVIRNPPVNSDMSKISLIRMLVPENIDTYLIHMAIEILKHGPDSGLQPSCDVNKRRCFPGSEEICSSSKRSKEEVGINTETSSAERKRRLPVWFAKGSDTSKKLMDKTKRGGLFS
In short: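 Percent engagement of WRN C727 is expressed against DMSO-treated samples, measured by PRM mass spectrometry of streptavidin-enriched, probe-tagged tryptic peptides. Compound dose responses preceded probe labelling of solvent-exposed cysteines, in either living OCI-AML2 cells or their lysates.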

SW480 cells = test: Cell growth assay (CellTiter-Glo 2.0), SW480 MSS cell line; settings: Homo sapiens, SW480, 120 h, read-out: Cell Growth Inhibition GI50 SW480
HCT 116 cells = test: Cell growth assay (CellTiter-Glo 2.0), HCT 116 MSI-H cell line; settings: Homo sapiens, HCT-116, 120 h, read-out: Cell Growth Inhibition GI50 HCT-116
Protocol: The effects of compound on cellular viability were determined using the CellTiter-Glo® 2.0 Luminescent Cell Viability Assay (Promega, Madison, WI).
SW480 cells were seeded at 1,000 cells per well in Eagle's Minimum Essential Medium (EMEM) with 10% FBS. Both cell lines were seeded in a volume of 50 μL medium per well. […] The concentration range was adjusted as needed for compounds of different potencies. The cells treated with compounds were incubated for 5 days at 37° C. in 5% CO2. […] The plate was then read on a Clariostar plate reader (BMG Labtech, Cary, NC) in luminescence mode. The previously measured baseline cell viability was subtracted from the luminescence value of each well, and cell viability (% of DMSO) was plotted as a function of log compound concentration. The EC50 was then calculated for each compound using Dotmatics Software (San Diego, CA).

hWRN(519-1227)_C-H3CV-GFP-10His, sequence (Q14191 519-1227): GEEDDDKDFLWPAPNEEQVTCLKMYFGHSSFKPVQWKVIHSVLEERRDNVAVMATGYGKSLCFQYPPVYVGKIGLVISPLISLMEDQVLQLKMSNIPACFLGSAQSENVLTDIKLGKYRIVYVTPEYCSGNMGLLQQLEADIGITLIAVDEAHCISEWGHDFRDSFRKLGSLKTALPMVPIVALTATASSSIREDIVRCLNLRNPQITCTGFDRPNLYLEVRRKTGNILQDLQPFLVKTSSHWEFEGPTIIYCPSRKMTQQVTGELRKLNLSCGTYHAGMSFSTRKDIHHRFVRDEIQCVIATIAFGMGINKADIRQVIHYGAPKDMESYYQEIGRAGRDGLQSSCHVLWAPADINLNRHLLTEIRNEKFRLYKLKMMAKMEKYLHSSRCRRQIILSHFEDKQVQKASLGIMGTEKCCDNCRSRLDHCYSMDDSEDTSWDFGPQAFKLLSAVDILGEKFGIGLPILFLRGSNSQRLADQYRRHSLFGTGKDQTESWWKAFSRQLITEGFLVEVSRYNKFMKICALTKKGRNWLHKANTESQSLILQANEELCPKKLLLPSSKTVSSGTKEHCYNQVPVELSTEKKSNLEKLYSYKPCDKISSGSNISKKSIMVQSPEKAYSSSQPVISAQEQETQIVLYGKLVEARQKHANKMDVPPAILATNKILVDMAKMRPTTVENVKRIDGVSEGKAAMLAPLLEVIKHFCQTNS

SMILES | IC50 [1] [µM] | IC50 (WRN C727) [µM] | GI50 (SW480 cells) [µM] | GI50 (HCT 116 cells) [µM]
CC(C)(C)c1ncc(C(=O)N[C@H](/C=C/S(C)(=O)=O)C2CC2)c(O[C@H]2C[C@@H]3C[C@@H]3C2)n1 [Example 160, 4-(((1R,3s,5S)-bicyclo[3.1.0]hexan-3-yl)oxy)-2-(tert-butyl)-N—((S,E)-1-cyclopropyl-3-(methylsulfonyl)allyl)pyrimidine-5-carboxamide] | 0.9 | 6 | 3.4 | 0.15
C[C@@H](/C=C/S(C)(=O)=O)NC(=O)c1cnc(OC2CCCC2)nc1Oc1ccccc1 [Example 165, (S,E)-2-(cyclopentyloxy)-N-(4-(methylsulfonyl)but-3-en-2-yl)-4-phenoxypyrimidine-5-carboxamide] | 4.1 | 22.6 | > 10 | 2.7
C[C@@H](/C=C/S(C)(=O)=O)NC(=O)c1cnc(N2C3CCC2CC3)nc1Oc1ccccc1 [Example 166, (S,E)-2-(7-azabicyclo[2.2.1]heptan-7-yl)-N-(4-(methylsulfonyl)but-3-en-2-yl)-4-phenoxypyrimidine-5-carboxamide] | 3.6 | 8.93 | > 10 | 0.69
C[C@@H]1CC[C@H](C)N1c1ncc(C(=O)N[C@@H](C)/C=C/S(C)(=O)=O)c(Oc2ccccc2)n1 [Example 171, 2-((2R,5S)-2,5-dimethylpyrrolidin-1-yl)-N—((S,E)-4-(methylsulfonyl)but-3-en-2-yl)-4-phenoxypyrimidine-5-carboxamide] | 1.19 | 4.45 | 8.1 | 0.434

The remaining compounds from weak to strong by IC50 [1], led by results:

IC50 [1] [µM] | IC50 (WRN C727) [µM] | GI50 (SW480 cells) [µM] | GI50 (HCT 116 cells) [µM] | SMILES
11 | 18.5 | > 10 | 5.1 | C[C@@H](/C=C/S(C)(=O)=O)NC(=O)c1cnc(C2CCCC2)nc1Oc1cccc(O)c1 [Example 136, (S,E)-2-cyclopentyl-4-(3-hydroxyphenoxy)-N-(4-(methylsulfonyl)but-3-en-2-yl)pyrimidine-5-carboxamide]
6.8 | 11.2 | 11 | 2.2 | C[C@@H](/C=C/S(C)(=O)=O)NC(=O)c1cnc(N2CCCC2(C)C)nc1Oc1ccccc1 [Example 174, (S,E)-2-(2,2-dimethylpyrrolidin-1-yl)-N-(4-(methylsulfonyl)but-3-en-2-yl)-4-phenoxypyrimidine-5-carboxamide]
6.8 | 20 | 12 | 2.2 | C[C@@H](/C=C/S(C)(=O)=O)NC(=O)c1cnc(N2CCC[C@@H]2C)nc1Oc1ccccc1 [Example 175, 2-((S)-2-methylpyrrolidin-1-yl)-N—((S,E)-4-(methylsulfonyl)but-3-en-2-yl)-4-phenoxypyrimidine-5-carboxamide]
4.4 | 9.23 | 17 | 1.6 | C[C@@H](/C=C/S(C)(=O)=O)NC(=O)c1cnc(N2CCCC2)nc1Oc1ccccc1 [Example 168, (S,E)-N-(4-(methylsulfonyl)but-3-en-2-yl)-4-phenoxy-2-(pyrrolidin-1-yl)pyrimidine-5-carboxamide]
4 | 15 | > 10 | 1.1 | C[C@@H](/C=C/S(C)(=O)=O)NC(=O)c1cnc(C(C)(C)C)nc1O[C@@H]1C[C@@H]2C[C@@H]2C1 [Example 157, 4-[[(1S,5R)-3-bicyclo[3.1.0]hexanyl]oxy]-2-tert-butyl-N—[(E,1S)-1-methyl-3-methylsulfonyl-allyl]pyrimidine-5-carboxamide]
3.4 | 10 | > 10 | 0.98 | C[C@@H](/C=C/S(C)(=O)=O)NC(=O)c1cnc(C2CCCC2)nc1Oc1ccccc1O [Example 137, (S,E)-2-cyclopentyl-4-(2-hydroxyphenoxy)-N-(4-(methylsulfonyl)but-3-en-2-yl)pyrimidine-5-carboxamide]
